Results on seven molecules are retold here after patent publication US20240180910A1, “METHOD FOR TREATING CANCER WITH A CHEMOTHERAPEUTIC MODIFIER” (Elion Oncology, Inc., priority 2022, published 2024).

The conditions of data set [1]: cited from earlier work; for t1/2: arithmetic mean.
A short description of the next data set: clinical. Particulars: human, in vivo.
The conditions of data set [2]: cited from earlier work.
The test system of data set [3] is patient-derived colon cancer xenograft CXF 280. Particulars: for Minimum T/C: days 1-14, 22-35, Day 35.
Experimental: This study was to assess the antitumor efficacy of eniluracil in combination with different doses of capecitabine in the patient-derived colon xenograft CXF 280 subcutaneously implanted in immunodeficient athymic nude mice.
The study consisted of an in vivo efficacy experiment with the patient-derived colon cancer xenograft CXF 280 implanted subcutaneously in athymic nude mice.
This experiment consisted of six groups with six animals each. Animals were dosed in monotherapy with capecitabine at 300 or at 30 mg/kg/day daily for 2 weeks with a one-week dosing break followed by another 2 weeks of daily dosing (14 days ON and 7 days OFF). In combination therapies, capecitabine was dosed at 30, 15 or 7.5 mg/kg/day on days 1-7, 15-21 and 29-35 (7 days ON and 7 days OFF) as well as with eniluracil at 10 mg/kg/day on days 1, 3, 5, 15, 17, 19, 29, 31, and 33.
Combination therapies with capecitabine and eniluracil scheduled for the same dosing day were administered with a six-hour dosing delay after dosing with eniluracil in order to ensure that all the eniluracil is eliminated in the mouse prior to capecitabine administration.
All therapies were administered via oral gavage (p.o.) over the course of 35 days followed by an observation period of one week until day 42 of the experiment.
Relative tumor volumes (RTVs) for Day x were calculated by dividing the absolute individual tumor volume on Day x (Tx) by the absolute individual tumor volume of the same tumor on the day of randomization (Tr) multiplied by 100%.
Tumor growth inhibition was determined by comparison of the median RTV of the test groups (T) with the vehicle control group (C) and was expressed as minimum T/C value in percent. The minimum T/C value recorded for a test group during an experiment represents the maximum antitumor efficacy for the respective treatment.
For data set [4] the following is noted: colon cancer, adjuvant, XELODA 1250 mg/m^2/bid (n = 995), i.v. 5-FU/LV Mayo Clinic regimen (n = 974), cited from earlier work.
The conditions of data set [5]: human, in vivo.
Experimental: (§1) To evaluate the safety, dose-limiting toxicities (DLTs), and maximum tolerated dose (MTD) of capecitabine administered to patients with advanced, refractory gastrointestinal tract (GI) tumors using a 7 days on +7 days off capecitabine regimen ˜24 hours after a single, fixed, oral 40 mg dose of eniluracil.
(§2) Eniluracil (40-50 mg) is orally administrated at Day 1. After 12-24 hours, capecitabine is orally administered. Capecitabine is given twice a day at 140-600 mg/day for a total of 7 days. Then the patient is rested for 7 days before receiving the next cycle which follows the above-described procedures. The cycles are repeated until either the patient has a complete response or when the disease progresses in the patient. A complete response means that the tumor is no longer present. Progression of the cancer means that the tumor starts enlarging or the tumor is no longer stable.
(§3) Primary Endpoints: • DLTs and incidences of AEs according to NCI CTCAE Version 5.0. • Concentrations of capecitabine, 5 FU, FBAL, 5′ DFCR, and 5′ DFUR in plasma, PK parameters will be estimated from concentration time data using noncompartmental methods, as data permit. • Concentrations of eniluracil in plasma; PK parameters will be estimated from concentration-time data using noncompartmental methods, as data permit. • 2.
(§4) Briefly, capecitabine was administered to patients with advanced, refractory gastrointestinal tract (GI) tumors using a 7 days on +7 days off capecitabine regimen ˜24 hours after a single, fixed, oral 40 mg dose of eniluracil.
For data set [6] the following is noted: doses up to 50 g per day administered for seven days; cited from earlier work.
Data set [7] in a line: Clinical trial: plasma pharmacokinetics, capecitabine 7 days on + 7 days off ~24 hours after single oral 40 mg eniluracil. Particulars: day 8.
Experimental: as §1, §2, §3, §4
Setting [8] is: plasma, Day 14, after oral capecitabine 1255 mg/m^2, 8 cancer patients.
Where [9] appears, read: plasma, Day 14, after oral capecitabine 1255 mg/m^2, 8 cancer patients, geometric mean.
The mark [10] stands for this setting: plasma, Day 14, after oral capecitabine 1255 mg/m^2, 8 cancer patients, median.
Where [11] appears, read: 2005 EMA for Xeloda, capecitabine alone 1250 mg/m^2.

Where two headings read alike, the source gives them in different places.

What is called Cmax is the peak of the concentration-time curve. In general, half-life refers to the time in which the quantity being followed falls by half. For `O=c1[nH]cc(F)c(=O)[nH]1` [5-FU, 5-Fluorouracil], the “5-FU Mean T1/2” value in data set [1] (Capecitabine alone) is recorded as 0.76 h. The “exposure (AUC)” value in data set [1] (after capecitabine oral dosing at 1255 mg/m^2) is recorded as “approximately 1630 h*ng/mL”. In data set [1] (setting [8]), the t1/2 was 0.76 h. Further, the AUC0-t in data set [1] (setting [9]) was 1620 ng·h/mL. Also, the “AUC0-∞” value in data set [1] (setting [9]) is 1630 ng·h/mL; in data set [2] (setting [11]), 2030 ng·h/mL. Also, the Cmax in data set [1] (setting [9]) was 709 ng/mL. For the same molecule, the tmax in data set [1] (setting [10]) is 2.00 h. For the same molecule, the half-life was 3.6 h in “clinical” (5-FU Day 2 Mean T1/2, capecitabine daily dose 75 (with Eniluracil)); 3.35 h in the data set “clinical” (5-FU Day 2 Mean T1/2, capecitabine daily dose 150 (with Eniluracil)); 3.54 h in “clinical” (5-FU Day 2 Mean T1/2, capecitabine daily dose 300 (with Eniluracil)); 5.71 h in “clinical” (5-FU Day 2 Mean T1/2, capecitabine daily dose 450 (with Eniluracil)); at most 5.71 h in “clinical” (half-life (T1/2) of 5-FU at day 2, capecitabine in combination with eniluracil pretreatment, highest over doses). Moreover, the “peak plasma concentrations (Cmax)” value in data set [2] (setting [11]) is 950 ng/mL.

`C[C@H]1O[C@@H](n2cc(F)c(N)nc2=O)[C@H](O)[C@@H]1O` [5′-DFCR, 5′-deoxy-5-fluorocytidine]: the t1/2 in data set [1] (setting [8]) is 1.31 h. In data set [1] (setting [9]), the AUC0-t is 3970 ng·h/mL, the “AUC0-∞” value was 5210 ng·h/mL and the Cmax was 1710 ng/mL. Further, the tmax in data set [1] (setting [10]) is reported as 2.00 h. In data set [2] (setting [11]), the “AUC0-∞” value is 7240 ng·h/mL, the “peak plasma concentrations (Cmax)” value was 3050 ng/mL and the “time to peak plasma concentrations (tmax)” value (shortened to “time”) was 2.00 h.

Regarding `C[C@H]1O[C@@H](n2cc(F)c(=O)[nH]c2=O)[C@H](O)[C@@H]1O` [5′DFUR, doxifluridine], the t1/2 in data set [1] (setting [8]) was 0.66 h. Further, in data set [1] (setting [9]), the AUC0-t was 19900 ng·h/mL, the “AUC0-∞” value was 21700 ng·h/mL and the peak concentration (Cmax) is 9370 ng/mL. Moreover, in data set [2] (setting [11]), the “AUC0-∞” value is 24600 ng·h/mL, the “peak plasma concentrations (Cmax)” value was 12100 ng/mL and the “time” value was 2.00 h.

For the molecule `CCCCCOC(=O)Nc1nc(=O)n([C@@H]2O[C@H](C)[C@@H](O)[C@H]2O)cc1F` [Capecitabine, capecitabine], the t1/2 in data set [1] (setting [8]) is 0.85 h. Besides, in data set [1] (setting [9]), the AUC0-t is 7290 ng·h/mL, the “AUC0-∞” value was 7400 ng·h/mL and the Cmax was 3990 ng/mL. Further, the tmax in data set [1] (setting [10]) is reported as 1.50 h. Moreover, in data set [2] (setting [11]), the “AUC0-∞” value was 7750 ng·h/mL, the “peak plasma concentrations (Cmax)” value is 4670 ng/mL and the “time” value was 1.50 h. Also, the “Minimum T/C” value in data set [3] (Group 2: capecitabine 300 mg/kg/day p.o.) turned out to be 4.5%. Besides, the “Minimum T/C” value in data set [3] (Group 3: capecitabine 30 mg/kg/day p.o.) is reported as 34.9%. Moreover, in data set [3] (monotherapy with capecitabine at 300 mg/kg/day in mice), the “antitumor activity (in words)” value is recorded as “high antitumor activity”. Further, in data set [4], the “Abdominal pain upper, Grade 3/4” value is recorded as below 1%; the “Abdominal pain upper, Total” value is 6%; the “Abdominal pain, Grade 3/4” value is listed as 2%; the “Abdominal pain, Total” value is 10%. For the same molecule, in data set [4], the “Alopecia, Total” value was 6%; the “Anorexia, Grade 3/4” value is reported as below 1%; the “Anorexia, Total” value was 9%; the “Asthenia, Grade 3/4” value was below 1%. Moreover, in data set [4], the “Asthenia, Total” value is reported as 9%; the “Conjunctivitis, Grade 3/4” value is recorded as below 1%; the “Conjunctivitis, Total” value was 5%; the “Constipation, Total” value is on record as 6%. Besides, in data set [4], the “Diarrhea, Grade 3/4” value was 11%; the “Dizziness, Grade 3/4” value is recorded as below 1%; the “Dizziness, Total” value is listed as 5%; the “Dysgeusia, Total” value was 6%. For the same molecule, in data set [4], the “Dyspepsia, Grade 3/4” value is listed as below 1%; the “Dyspepsia, Total” value is given as 5%; the “Erythema, Grade 3/4” value is given as 1%; the “Erythema, Total” value is 6%. In data set [4], the “Fatigue, Grade 3/4” value is recorded as below 1%; the “Fatigue, Total” value is on record as 15%; the “Hand-foot Syndrome, Grade 3/4” value is listed as 17%; the “Lethargy, Grade 3/4” value is on record as below 1%. For the same molecule, in data set [4], the “Lethargy, Total” value was 10%; the “Nausea, Grade 3/4” value is 2%; the “Nausea, Total” value was 33%; the “Neutropenia, Grade 3/4” value is below 1%. In data set [4], the “Neutropenia, Total” value is 2%; the “Pyrexia, Grade 3/4” value was below 1%; the “Pyrexia, Total” value is 4%; the “Rash, Total” value is listed as 6%. Further, in data set [4], the “Stomatitis, Grade 3/4” value is reported as 2%; the “Stomatitis, Total” value was 22%; the “Vomiting, Grade 3/4” value was 2%; the “Vomiting, Total” value is 14%. In data set [4] (listed as XELODA), the “Diarrhea, Total” value is reported as 46% and the “Hand-foot Syndrome, Total” value is 60%. Besides, in data set [4] (listed as Xeloda), the “Diarrhea, Total” value was “about 46%” and the “Hand-foot Syndrome, Total” value is given as “about 60%”.

On to `C#Cc1c[nH]c(=O)[nH]c1=O` [Eniluracil, 5-Ethynyluracil], for which, in data set [5], the “metabolism of capecitabine into FBAL (AUC and Cmax of FBAL)” value was “completely blocked”. Also, the safety result in data set [6] is “safe”.

Take `NCC(F)C(=O)O` (stereo not drawn) [FBAL, α-fluoro-β-alanine]: in data set [7], the “effects of eniluracil on FBAL metabolism” value is “no longer apparent”. Moreover, in data set [1] (human, in vivo, po, 1255 mg/m2), the AUC0-t was 30000 ng·h/mL, the “AUC0-∞” value was 35200 ng·h/mL, the Cmax is 5320 ng/mL and the “exposure (AUC)” value was 30-35,000 h*ng/mL. Further, in data set [1] (human, in vivo, po, 1255 mg/m2), the tmax is 3.34 h. Moreover, in data set [1] (human, in vivo), the “Tmax of FBAL” value was 3.24 h. For the same molecule, the t1/2 in data set [1] (setting [8]) was 3.23 h. Besides, in data set [2] (in vivo, 1250 mg/m2), the “AUC0-∞” value was 36300 ng·h/mL, the “peak plasma concentrations (Cmax)” value is 5460 ng/mL and the “time” value was 3.34 h.

Take `O=C1NCC(F)C(=O)N1` (centres unmarked) [FUH2]: in data set [1] (setting [8]), the t1/2 is listed as 1.14 h. In addition, in data set [1] (setting [9]), the AUC0-t was 1200 ng·h/mL, the “AUC0-∞” value was 2150 ng·h/mL and the Cmax was 442 ng/mL. The tmax in data set [1] (setting [10]) is given as 2.28 h.
